As usually defined, the IC50 is the concentration that inhibits the measured activity by half.

SMILES strings stand for the structures. Like-named read-outs stand apart in the source and are kept apart here.

Results on 20 compounds are retold here after patent US11584736B2, “Heterocyclic P2Y14 receptor antagonists” (The United States of America, as represented by the …, priority 2018, dated 2023).

The target in experiment [1] is T1, hP2Y14R (Homo sapiens, UniProt Q15391).
T1 construct: expressed in transfected cells
T1 sequence (Q15391 1-338): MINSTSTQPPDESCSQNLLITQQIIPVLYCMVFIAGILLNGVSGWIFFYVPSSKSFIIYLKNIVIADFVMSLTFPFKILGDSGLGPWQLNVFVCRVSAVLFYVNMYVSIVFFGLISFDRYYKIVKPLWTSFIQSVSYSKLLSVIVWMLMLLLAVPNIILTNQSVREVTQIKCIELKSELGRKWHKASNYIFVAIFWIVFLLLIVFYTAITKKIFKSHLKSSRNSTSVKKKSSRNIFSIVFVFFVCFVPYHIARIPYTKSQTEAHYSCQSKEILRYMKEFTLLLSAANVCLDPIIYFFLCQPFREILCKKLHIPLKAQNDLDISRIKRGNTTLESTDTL
The experiment is described as follows: Competitive fluorescent binding assay, flow cytometry of whole hP2Y14R-CHO cells. The protocol: Cell Culture: Chinese hamster ovary cells stably expressing the hP2Y14—R (CHO-hP2Y14R) were grown in Dulbecco's Modified Eagle's Medium (DMEM)/Ham's F12 (F12) 1:1 supplemented with 10% FBS, 100 units/mL penicillin, […] streptomycin, 2 mM L-glutamine and 0.500 mg/mL G418 Sulfate (Geneticin). Cells were maintained in a humidified atmosphere and sterile incubation conditions held at 37° C. and 5% CO2 (g).
Competitive Assay: Competitive fluorescent assays were performed on a BD FACSCalibur flow cytometer in conjunction with the softwares BD Bioscience PlateManager and CellQuest. All cell culture growth and assays for this procedure were conducted on flat-bottom 96-well plates. CHO-hP2Y14R cells were grown to approximately 80-90% confluency prior to assays. The 96-well plate format enabled four compounds to be analyzed in triplicate per run. All unlabeled ligand compounds are stored as 5 mM stock solutions in dimethyl sulfoxide (DMSO). Serial dilutions of each compound were prepared in complete medium. Cells were initially incubated with unlabeled compounds for 30 min at 37° C. and 5% CO2 (g). […] After three consecutive washes in sterile 1× Dulbecco's Phosphate Buffered Saline (DPBS) minus Ca^2+/Mg^2+, cells were detached from the plate using Corning Cellstripper™ to reduce damaging the hP2Y14R protein. Final cell suspensions for flow cytometry was in DPBS minus Ca^2+/Mg^2+.
IC50 values were determined from the gathered data with the program GraphPad Prism version 7.0.
For orientation: Flow cytometry measures light scatter and fluorescence of single cells or particles in a stream.

Experiment [2] concerns eosinophils in the bronchoalveolar lavage fluid. The experiment in a line: Protease-mediated mouse model of asthma. The format is in vivo. Conditions: 10 mg/kg i.p., 30 minutes prior to ovalbumin challenge at day 14, P<0.01 vs vehicle. The protocol: […][…] antagonists were tested in vivo in a protease-mediated mouse model of asthma and found to be effective in reducing the presence of eosinophils in the bronchoalveolar lavage fluid. The animals were first sensitized with ovalbumin/Aspergillus oryzae extract on days 0 and 7. Antagonists were injected i.p. at a dose of 10 mg/kg, 30 minutes prior to an ovalbumin challenge at day 14. […] Both […][…] antagonist effects were statistically significant (P<0.01) compared to vehicle control.

Experiment [3] concerns the target T2, mP2Y14R (Mus musculus, UniProt Q9ESG6).
T2 construct: expressed in transfected cells; host or cells: HEK293 cells
T2 sequence (Q9ESG6 1-338): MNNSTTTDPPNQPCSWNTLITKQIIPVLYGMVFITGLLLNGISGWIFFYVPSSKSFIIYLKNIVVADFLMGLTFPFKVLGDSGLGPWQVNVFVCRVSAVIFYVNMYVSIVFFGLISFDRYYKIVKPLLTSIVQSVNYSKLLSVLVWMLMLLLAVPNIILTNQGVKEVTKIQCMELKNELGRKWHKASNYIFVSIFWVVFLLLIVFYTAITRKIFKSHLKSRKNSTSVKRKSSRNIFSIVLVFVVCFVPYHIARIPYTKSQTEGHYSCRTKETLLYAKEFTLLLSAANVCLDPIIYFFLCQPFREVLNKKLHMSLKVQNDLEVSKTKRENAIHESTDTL
The experiment is described as follows: Fluorescence binding method at mP2Y14R expressed in HEK293 cells. Conditions: Table 3.
Excerpt: This example compares inhibitory potency of antagonists at the mP2Y14R to the hP2Y14R expressed in HEK293 cells, using the fluorescence binding method.

Where [4] appears, read: Table 1, hP2Y14R-CHO cells, fluorescent antagonist tracer 20 nM, mean ± SEM (n = 3-5), read-out: IC50.
Setting [5] is: Table 2, hP2Y14R-CHO cells, fluorescent antagonist tracer 20 nM, mean ± SEM (n = 3-5), read-out: IC50.
Setting [6] is: Table 3 comparison column, values identical to Tables 1 and 2, read-out: hP2Y14R, IC50.

Consider `CN1CCC(c2ccc(-c3cc(C(=O)O)cc4cc(-c5ccc(C(F)(F)F)cc5)ccc34)cc2)CC1` [Compound 5, 4-(4-(1-Methylpiperidin-4-yl)phenyl)-7-(4-(trifluoromethyl)phenyl)-2-naphthoic acid], for which the IC50 in experiment [1] (setting [4]) worked out at 195 ± 120 nM.
Take `N#Cc1cc(-c2ccc(C3CCNCC3)cc2)cc(-n2cc(-c3ccc(C(F)(F)F)cc3)nn2)c1` [Compound 16, 4′-(Piperidin-4-yl)-5-(4-(4-(trifluoromethyl)phenyl)-1H-1,2,3-triazol-1-yl)-[1,1′-biphenyl]-3-carbonitrile]: the IC50 in experiment [1] (setting [4]) is 42100 ± 8400 nM.
For `CC(C)(C)OC(=O)N1CCC(c2ccc(-c3cc(C(=O)O)cc4cc(-c5ccc(C(F)(F)F)cc5)ccc34)cc2)CC1` [Compound 10, 4-(4-(1-(tert-butoxycarbonyl)piperidin-4-yl)phenyl)-7-(4-(trifluoromethyl)phenyl)-2-naphthoic acid], the half-inhibitory concentration (IC50) in experiment [1] (setting [4]) was 2440 ± 1540 nM.
On to `O=C(O)c1cc(-c2ccc(C3CCNCC3)cc2)c2nc(-c3ccc(C(F)(F)F)cc3)[nH]c2c1` [Compound 35, 4-(4-(Piperidin-4-yl)phenyl)-2-(4-(trifluoromethyl)phenyl)-1H-benzo[d]imidazole-6-carboxylic acid], for which the IC50 in experiment [1] (setting [5]) was above 100000 nM.
Take `CCCCCCN1CCC(c2ccc(-c3cc(C(=O)O)cc4cc(-c5ccc(C(F)(F)F)cc5)ccc34)cc2)CC1` [Compound 9, 4-(4-(1-Hexylpiperidin-4-yl)phenyl)-7-(4-(trifluoromethyl)phenyl)-2-naphthoic acid]: the half-maximal inhibitory concentration (IC50) in experiment [1] (setting [4]) was found to be 131 ± 11 nM.
Take `O=C(O)c1cc(-c2ccc(C3CCNCC3)cc2)c2ccc(-c3ccc(C(F)(F)F)cc3)cc2c1` [Compound 1]: in experiment [2], the “eosinophils in the bronchoalveolar lavage fluid, normalized and compared to vehicle (100±15%)” value is 43.9±12.8%.
Take `O=C(O)c1[nH]c(-c2ccc(C3=CCNCC3)cc2)cc1-n1cc(-c2ccc(C(F)(F)F)cc2)nn1` [Compound 33, 5-(4-(1,2,3,6-Tetrahydropyridin-4-yl)phenyl)-3-(4-(4-(trifluoromethyl)phenyl)-1H-1,2,3-triazol-1-yl)-1H-pyrrole-2-carboxylic acid]: the IC50 in experiment [1] (setting [5]) is above 100000 nM.
Turning to `NC(=O)c1ccc(-c2cc(NC(=O)c3ccc(C(F)(F)F)cc3)cc(C(=O)O)c2)cc1` [Compound 27, 4′-Carbamoyl-5-(4-(trifluoromethyl)benzamido)-[1,1′-biphenyl]-3-carboxylic acid], the IC50 in experiment [1] (setting [5]) was found to be 3050 ± 210 nM.
`NCCOCCOCCOCCOCCOCCOCCC(=O)N1CCC(c2ccc(-c3cc(C(=O)O)cc4cc(-c5ccc(C(F)(F)F)cc5)ccc34)cc2)CC1` [Compound 12, 4-(4-(1-(1-Amino-3,6,9,12,15,18-hexaoxahenicosan-21-oyl)piperidin-4-yl)phenyl)-7-(4-(trifluoromethyl)phenyl)-2-naphthoic acid]: the IC50 in experiment [1] (setting [4]) is 963 ± 417 nM.
On the same count and under the same terms, the value for `O=C(O)c1cc(-c2ccc(C34CCNCC3C4)cc2)cc(-n2cc(-c3ccc(C(F)(F)F)cc3)nn2)c1` (stereo not shown) [Compound 18, 4′-(3-Azabicyclo[4.1.0]heptan-6-yl)-5-(4-(4-(trifluoromethyl)phenyl)-1H-1,2,3-triazol-1-yl)-[1,1′-biphenyl]-3-carboxylic acid] was around 400 nM.
For the compound `NC(=O)c1ccc(-c2cc(C(=O)O)cc(C(=O)Nc3ccc(C(F)(F)F)cc3)c2)cc1` [Compound 29, 4′-Carbamoyl-5-((4-(trifluoromethyl)phenyl)carbamoyl)-[1,1′-biphenyl]-3-carboxylic acid], in experiment [1] (setting [5]), the IC50 was found to be 6040 ± 810 nM.
In the case of `O=C(O)c1cc(-c2ccc(C3CCNCC3)cc2)cc(-c2cn(-c3ccc(C(F)(F)F)cc3)nn2)c1` [Compound 25, 4′-(Piperidin-4-yl)-5-(1-(4-(trifluoromethyl)phenyl)-1H-1,2,3-triazol-4-yl)-[1,1′-biphenyl]-3-carboxylic acid], the IC50 in experiment [1] (setting [5]) and in experiment [1] (setting [6]) was 644 ± 175 nM in each case.
For the compound `O=C(O)c1cc(-c2ccc(N3CCNCC3)cc2)cc(-n2cc(-c3ccc(C(F)(F)F)cc3)nn2)c1` [Compound 4, 4′-(Piperazin-1-yl)-5-(4-(4-(trifluoromethyl)phenyl)-1H-1,2,3-triazol-1-yl)-[1,1′-biphenyl]-3-carboxylic acid], the results for the IC50 in experiment [1] (setting [6]) and in experiment [3] were 233 ± 26 nM and 499 ± 57 nM, respectively.
In the case of `NC(=O)c1ccc(-c2cc(C(=O)O)cc(-c3cn(-c4ccc(C(F)(F)F)cc4)nn3)c2)cc1` [Compound 24, 4′-Carbamoyl-5-(1-(4-(trifluoromethyl)phenyl)-1H-1,2,3-triazol-4-yl)-[1,1′-biphenyl]-3-carboxylic acid], the IC50 in experiment [1] (setting [5]) is 1680 ± 380 nM.
With `CCCN1CCC(c2ccc(-c3cc(C(=O)O)cc4cc(-c5ccc(C(F)(F)F)cc5)ccc34)cc2)CC1` [Compound 7, 4-(4-(1-Propylpiperidin-4-yl)phenyl)-7-(4-(trifluoromethyl)phenyl)-2-naphthoic acid], in experiment [1] (setting [4]), the IC50 was found to be 133 ± 111 nM.
Take `NCCCNC(=O)c1ccc(-c2cc(C(=O)O)cc(-c3cn(-c4ccc(C(F)(F)F)cc4)nn3)c2)s1` [Compound 26, 3-(5-((3-Aminopropyl)carbamoyl)thiophen-2-yl)-5-(1-(4-(trifluoromethyl)phenyl)-1H-1,2,3-triazol-4-yl)benzoic acid]: the IC50 in experiment [1] (setting [5]) was determined as 2600 ± 560 nM.
On to `C#CCN1CCC(c2ccc(-c3cc(C(=O)O)cc4cc(-c5ccc(C(F)(F)F)cc5)ccc34)cc2)CC1` [Compound 6, 4-(4-(1-(Prop-2-yn-1-yl)piperidin-4-yl)phenyl)-7-(4-(trifluoromethyl)phenyl)-2-naphthoic acid], for which the IC50 in experiment [1] (setting [4]) was found to be 139 ± 19 nM.
With `O=C(O)c1cc(-c2ccc(C34CCN(CC3)CC4)cc2)c2ccc(-c3ccc(C(F)(F)F)cc3)cc2c1` [Compound 17, 4-(4-(Quinuclidin-4-yl)phenyl)-7-(4-(trifluoromethyl)phenyl)-2-naphthoic acid], in experiment [1] (setting [4]), the IC50 came out at 20 ± 4.4 nM.
As to `NC(=O)c1cc(-c2ccc(C3CCNCC3)cc2)cc(-n2cc(-c3ccc(C(F)(F)F)cc3)nn2)c1` [Compound 15, 4′-(Piperidin-4-yl)-5-(4-(4-(trifluoromethyl)phenyl)-1H-1,2,3-triazol-1-yl)-[1,1′-biphenyl]-3-carboxamide], the IC50 in experiment [1] (setting [4]) was above 100000 nM.
Take `NCCCNC(=O)c1ccc(-c2cc(C(=O)O)cc(-n3cc(-c4ccc(C(F)(F)F)cc4)nn3)c2)s1` [Compound 23]: the “eosinophils in the bronchoalveolar lavage fluid, normalized and compared to vehicle (100±15%)” value in experiment [2] was determined as 40.3±11.0%.
